In US20060069132A1, “Azolecarboxamide herbicides” (priority 2004, published 2006):

What was measured:
Experiment in all cases: Test E pre-/postemergence herbicide test
Conditions in all cases: Preemergence
common purslane = format: in vivo, Portulaca oleracea
How it was run: (§1)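 Test chemicals in a non-phytotoxic solvent mixture with surfactant applied preemergence to planted seeds and postemergence to plants 2 to 18 cm tall (1- to 4-leaf stage). After 12 to 14 days in the greenhouse, injury rated visually against untreated controls on a 0–100 scale (0 no effect, 100 complete control).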

annual bluegrass = format: in vivo, Poa annua
How it was run: as §1

common mallow = format: in vivo, Malva sylvestris
How it was run: as §1

Canada horseweed = format: in vivo, Erigeron Canadensis
How it was run: as §1

barnyardgrass = format: in vivo, Echinochloa crus-galli
How it was run: as §1

common sowthistle = format: in vivo, Sonchus oleraceous
How it was run: as §1

pitted morningglory = format: in vivo, Ipomoea lacunosa
How it was run: as §1

downy bromegrass = format: in vivo, Bromus tectorum
How it was run: as §1

green foxtail = format: in vivo, Setaria viridis
How it was run: as §1

goosegrass = format: in vivo, Eleusine indica
How it was run: as §1

large crabgrass = format: in vivo, Digitaria sanguinalis
How it was run: as §1

tropical spiderwort = format: in vivo, Commelina benghalensis
How it was run: as §1

Italian ryegrass = format: in vivo, Lolium multiflorum
How it was run: as §1

mustard = format: in vivo, Brassica nigra
How it was run: as §1

dallisgrass = format: in vivo, Paspalum dilatatum
How it was run: as §1

southern sandbur = format: in vivo, Cenchrus echinatus
How it was run: as §1

[1] = 250 g ai/ha, scale 0 (no effect) to 100 (complete control)
[2] = 500 g ai/ha, scale 0 (no effect) to 100 (complete control)

CCc1nn(C(C)(C)CC)nc1C(=O)Nc1cccc(C(=O)N(C)C)c1 [Compound 372]
70: Plant response rating, Barnyardgrass (barnyardgrass; 125 g ai/ha, scale 0 to 100) | Plant response rating, Bromegrass, Downy (downy bromegrass; 125 g ai/ha, scale 0 to 100) | Plant response rating, Foxtail, Green (green foxtail; [2]) | Plant response rating, Crabgrass, Large (large crabgrass; [1]) | Plant response rating, Spiderwort (tropical spiderwort; 125 g ai/ha, scale 0 to 100) | Plant response rating, Spiderwort (tropical spiderwort; [1]) | Plant response rating, Ryegrass, Italian (Italian ryegrass; 125 g ai/ha, scale 0 to 100) | Plant response rating, Sandbur (southern sandbur; [2])
40: Plant response rating, Purslane (common purslane; 125 g ai/ha, scale 0 to 100) | Plant response rating, Sowthistle (common sowthistle; 125 g ai/ha, scale 0 to 100) | Plant response rating, Sowthistle (common sowthistle; [1]) | Plant response rating, Goosegrass (goosegrass; 62 g ai/ha, scale 0 to 100) | Plant response rating, Goosegrass (goosegrass; 125 g ai/ha, scale 0 to 100)
80: Plant response rating, Bluegrass (annual bluegrass; 125 g ai/ha, scale 0 to 100) | Plant response rating, Mallow (common mallow; [1]) | Plant response rating, Horseweed (Canada horseweed; 62 g ai/ha, scale 0 to 100) | Plant response rating, Horseweed (Canada horseweed; 125 g ai/ha, scale 0 to 100) | Plant response rating, Barnyardgrass (barnyardgrass; [1]) | Plant response rating, Bromegrass, Downy (downy bromegrass; [1]) | Plant response rating, Spiderwort (tropical spiderwort; [2]) | Plant response rating, Dallisgrass (dallisgrass; [1])
30: Plant response rating, Bluegrass (annual bluegrass; 62 g ai/ha, scale 0 to 100) | Plant response rating, Sandbur (southern sandbur; 125 g ai/ha, scale 0 to 100)
100: Plant response rating, Purslane (common purslane; [2]) | Plant response rating, Horseweed (Canada horseweed; [2]) | Plant response rating, Crabgrass, Large (large crabgrass; [2]) | Plant response rating, Black Mustard (mustard; 62 g ai/ha, scale 0 to 100) | Plant response rating, Black Mustard (mustard; 125 g ai/ha, scale 0 to 100) | Plant response rating, Black Mustard (mustard; [1]) | Plant response rating, Black Mustard (mustard; [2])
85: Plant response rating, Bromegrass, Downy (downy bromegrass; [2]) | Plant response rating, Dallisgrass (dallisgrass; [2])
95: Plant response rating, Bluegrass (annual bluegrass; [1]) | Plant response rating, Bluegrass (annual bluegrass; [2]) | Plant response rating, Horseweed (Canada horseweed; [1]) | Plant response rating, Barnyardgrass (barnyardgrass; [2]) | Plant response rating, Sowthistle (common sowthistle; [2]) | Plant response rating, Ryegrass, Italian (Italian ryegrass; [1]) | Plant response rating, Ryegrass, Italian (Italian ryegrass; [2])
50: Plant response rating, Purslane (common purslane; [1]) | Plant response rating, Mallow (common mallow; 62 g ai/ha, scale 0 to 100) | Plant response rating, Mallow (common mallow; 125 g ai/ha, scale 0 to 100) | Plant response rating, Barnyardgrass (barnyardgrass; 62 g ai/ha, scale 0 to 100) | Plant response rating, Morningglory (pitted morningglory; [1]) | Plant response rating, Foxtail, Green (green foxtail; 125 g ai/ha, scale 0 to 100) | Plant response rating, Goosegrass (goosegrass; [1]) | Plant response rating, Crabgrass, Large (large crabgrass; 125 g ai/ha, scale 0 to 100) | Plant response rating, Dallisgrass (dallisgrass; 125 g ai/ha, scale 0 to 100)
20: Plant response rating, Morningglory (pitted morningglory; 125 g ai/ha, scale 0 to 100) | Plant response rating, Bromegrass, Downy (downy bromegrass; 62 g ai/ha, scale 0 to 100) | Plant response rating, Sandbur (southern sandbur; 62 g ai/ha, scale 0 to 100)
90: Plant response rating, Mallow (common mallow; [2])
60: Plant response rating, Morningglory (pitted morningglory; [2]) | Plant response rating, Foxtail, Green (green foxtail; [1]) | Plant response rating, Ryegrass, Italian (Italian ryegrass; 62 g ai/ha, scale 0 to 100) | Plant response rating, Sandbur (southern sandbur; [1])
10: Plant response rating, Purslane (common purslane; 62 g ai/ha, scale 0 to 100) | Plant response rating, Sowthistle (common sowthistle; 62 g ai/ha, scale 0 to 100) | Plant response rating, Morningglory (pitted morningglory; 62 g ai/ha, scale 0 to 100) | Plant response rating, Foxtail, Green (green foxtail; 62 g ai/ha, scale 0 to 100) | Plant response rating, Crabgrass, Large (large crabgrass; 62 g ai/ha, scale 0 to 100) | Plant response rating, Dallisgrass (dallisgrass; 62 g ai/ha, scale 0 to 100)
75: Plant response rating, Goosegrass (goosegrass; [2])
